ChEMBL document CHEMBL1127956, “Tetrahydroisoquinoline as a phenylalanine replacement in renin inhibitors” (Bioorg Med Chem Lett, 1994)

target: T1, Renin (Homo sapiens) (UniProt P00797); test: In vitro inhibitory activity against monkey plasma renin was determined at 10e-6 M; format: cell-free; conditions: Cercopithecidae, target entry is the homologue from another species
T1 sequence (whole entry): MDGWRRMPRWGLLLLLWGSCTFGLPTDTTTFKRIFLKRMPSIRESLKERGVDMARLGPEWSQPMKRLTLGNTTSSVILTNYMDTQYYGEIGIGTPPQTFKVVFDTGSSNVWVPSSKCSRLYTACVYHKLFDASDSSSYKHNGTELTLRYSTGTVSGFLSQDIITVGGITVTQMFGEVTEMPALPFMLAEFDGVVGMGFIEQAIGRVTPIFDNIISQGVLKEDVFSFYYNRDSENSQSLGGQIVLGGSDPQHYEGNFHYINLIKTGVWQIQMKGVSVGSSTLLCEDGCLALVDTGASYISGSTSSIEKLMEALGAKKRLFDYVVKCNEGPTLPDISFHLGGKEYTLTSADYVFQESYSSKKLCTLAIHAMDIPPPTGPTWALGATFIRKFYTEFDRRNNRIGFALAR

With `CC(C)C[C@H](O)[C@H](O)[C@H](CC1CCCCC1)NC(=O)CNC(=O)[C@@H]1Cc2ccccc2CN1C(=O)OC(C)(C)C` as the compound, how does the inhibition read?
Its inhibition is 11.9%.

`CC(C)C[C@H](O)[C@H](O)[C@H](CC1CCCCC1)NC(=O)CCC(O)[C@@H]1Cc2ccccc2CN1C(=O)OC(C)(C)C` (stereo partly specified) was tested. Which inhibition did it give?
Its inhibition is 0%.

How did the inhibition turn out when `CC(C)C[C@H](O)[C@H](O)[C@H](CC1CCCCC1)NC(=O)CCC(=O)[C@@H]1Cc2ccccc2CN1C(=O)OC(C)(C)C` was run?
Its inhibition is 9.8%.

target: T2, Renin (Homo sapiens, UniProt P00797); test: In vitro inhibitory activity against monkey plasma renin; format: cell-free, Cercopithecidae; conditions: target entry is the homologue from another species
T2 sequence (P00797 whole entry): T1 sequence (whole entry)

Which IC50 does the source give for `C=CC[C@H](NC(=O)[C@H]1Cc2ccccc2CN1C(=O)OC(C)(C)C)C(=O)N[C@@H](CC1CCCCC1)[C@@H](O)[C@@H](O)CC(C)C` here?
The IC50 was 325 nM.

How did the IC50 turn out when `C=CC[C@H](NC(=O)[C@H](Cc1ccccc1)NC(=O)OC(C)(C)C)C(=O)N[C@@H](CC1CCCCC1)[C@@H](O)[C@@H](O)CC(C)C` was run?
The IC50 was 0.42 nM.

How did the IC50 turn out when `CC(C)C[C@H](O)[C@H](O)[C@H](CC1CCCCC1)NC(=O)CNC(=O)[C@H](Cc1ccccc1)NS(=O)(=O)N1CCOCC1` was run?
The IC50 was 3.6 nM.

Which IC50 does the source give for `C=CC[C@H](NC(=O)[C@@H]1Cc2ccccc2CN1)C(=O)N[C@@H](CC1CCCCC1)[C@@H](O)[C@@H](O)CC(C)C` here?
The IC50 was 11.5 nM.

Which IC50 does the source give for `C=CC[C@H](NC(=O)[C@H]1Cc2ccccc2CN1)C(=O)N[C@@H](CC1CCCCC1)[C@@H](O)[C@@H](O)CC(C)C` here?
The IC50 was 373 nM.

Which IC50 does the source give for `C=CC[C@H](NC(=O)[C@@H]1Cc2ccccc2CN1S(=O)(=O)N1CCOCC1)C(=O)N[C@@H](CC1CCCCC1)[C@@H](O)[C@@H](O)CC(C)C` here?
The IC50 was 2.89 nM.

With `CC(C)C[C@H](O)[C@H](O)[C@H](CC1CCCCC1)NC(=O)CNC(=O)[C@@H]1Cc2ccccc2CN1S(=O)(=O)N1CCOCC1` as the compound, how does the IC50 read?
Its IC50 is 101 nM.

How did the IC50 turn out when `C=CC[C@H](NC(=O)[C@@H]1Cc2ccccc2CN1C(=O)OC(C)(C)C)C(=O)N[C@@H](CC1CCCCC1)[C@@H](O)[C@@H](O)CC(C)C` was run?
The IC50 was 146 nM.
